Experimental findings from PMC11042424, “Development of a First-in-Class RIPK1 Degrader to Enhance Antitumor Immunity” (Research Square, 2024) are described below.

One assay deals with T1, RIPK1 and VHL (Homo sapiens, UniProt P40337+Q13546).
T1 construct: Addgene backbone 87075 (RIPK1 vector, made in house) N273A; host or cells: HEK293T
The experiment in a line: NanoBRET live-cell ternary complex assay. The conditions noted are these: HEK293 cells co-transfected with nLuc-RIPK1 and VHL-Halo. Format: cell-based. The procedure:
Figure 2 LD4172, a RIPK1 PROTAC, induces potent and highly specific degradation of RIPK1 in a panel of cell lines. A, Chemical structures of RIPK1 PROTAC, LD4172, and its negative control, LD4172-NC. […] B, Quantification of RIPK1 levels in both Jurkat and B16F10 cells treated with LD4172 at indicated concentrations for 24 h, followed by Western blotting. C, DC50 and Dmax of LD4172 in various human and mouse cell lines. DC50, the drug concentration causing 50% protein degradation; Dmax, the maximum level of protein degradation. D, RIPK1 degradation kinetics induced by LD4172 treatment (1 μM) and resynthesis kinetics upon washout of LD4172 in both Jurkat and B16F10 cells. […] G, Time-resolved fluorescence resonance energy transfer (TR-FRET) based biochemical binding assay for RIPK1. […] In total, ~10,000 proteins were quantified in the proteomics experiment. […]
Human RIPK1 cDNA insert was cloned into pLenti6.2-ccdB-nLuc plasmid (87075, Addgene, a kind gift from Taipale Lab) using gateway cloning kit (11791020, Thermo) and standard protocol to obtain pLenti6.2-RIPK1-nLuc fusion vector. […] Immediately before reading the plate, prepare 4x concentrated NanoGlo nLuc substrate (N157, Promega) was prepared by diluting the stock into Opti-MEM 1,000-fold, and the NanoGlo substrate was then added into each well to bring the final concentration to 1x. […]
(Bioluminescence resonance energy transfer reports proximity on the nanometre scale.)

For a further assay, the system named is B16F10 cells. The experiment in a line: TNFα-mediated apoptosis in B16F10 cells. Format: cell-based, mouse. The conditions noted are these: 1 μM, TNFα 100 ng/mL, 72 hours. The text has this: Figure 3 LD4172 sensitizes B16F10 cells to TNFα-mediated apoptosis. A, Representative flow cytometry dot plots of apoptosis. In all four plots, viable cells are seen in the left lower quadrant (FITC-/PI-), early apoptotic cells in the right lower quadrant (FITC+/PI-), and late apoptotic cells in the right upper quadrant (FITC+/PI+). B, Representative images of PI (red) and caspase 3/7 (Cas3/7+, green) staining of B16F10 cells. Cell death assessed by PI uptake using Cytation 5 imager. C, Western blots for the expression of cleaved caspase3, cleaved caspase7, and cleaved PARP in B16F10 cells. D, Quantification of extracellular ATP level. Western blots for the expression of HMGB1 and calreticulin in B16F10 cells. E, Immunofluorescence staining of HMGB1 in B16F10 cells. B16F10 cells were treated in the presence or absence of TNFα (100 ng/mL), Z-VAD-FMK (25 μM), LD4172 (1 μM), and/or T2I (1 μM) as indicated for 72 hours. Data are representative of three independent experiments. Error bars represent SD.
Apoptosis quantification was conducted utilizing a FITC-conjugated Annexin V/PI assay kit (556547, BD Biosciences) and analyzed through flow cytometry. Briefly, 2×10^5 of B16F10 cells were seeded onto six-well plates and treated as specified for 72 hours at 37°C. Treated and untreated cells were harvested, washed with PBS, and resuspended in 100 μl of binding buffer. […]

With `Cc1ncsc1-c1ccc([C@H](C)NC(=O)[C@@H]2C[C@@H](O)CN2C(=O)[C@@H](NC(=O)CCCCCCCCCCC(=O)NCCCn2cc(-c3ccc4c(c3)CCN4C(=O)Cc3cccc(OC(F)(F)F)c3)c3c(N)ncnc32)C(C)(C)C)cc1` [LD4172], the “ternary complex formation, NanoBRET between RIPK1 and VHL” value on RIPK1 and VHL was “induced NanoBRET between RIPK1 and VHL”. Besides, in the assay on B16F10 cells, the “cell death / apoptosis in combination with TNFα” value was “significant cell death”.
